The compounds below were run against T1, human ACC1 (acetyl-coenzyme A carboxylase alpha transcript variant 1) (Homo sapiens, UniProt Q13085) (assay: Human ACC1 enzyme assay, Assay B1 (ADP-Glo)). Settings: not given.
T1 construct: FLAG (C); made in house; host or cells: baculovirus-infected insect cells (Hi5)
Assay type: biochemical

| SMILES | IC50 |
| --- | --- |
| Cc1ccc(-c2ccc(C)c(C3=C(O)C4(CCCOC4)NC3=O)c2)cc1 (stereo not shown) [1-14, 3-(4,4′-dimethylbiphenyl-3-yl)-4-hydroxy-7-oxa-1-azaspiro[4.5]dec-3-en-2-one] | 3070 nM |
| Cc1ccc(-c2ccc(Cl)cc2)cc1C1=C(O)CN(C)C1=O [1-16, 3-(4′-chloro-4-methylbiphenyl-3-yl)-4-hydroxy-1-methyl-1,5-dihydro-2H-pyrrol-2-one] | 241 nM |
| Cc1ccc(-c2cc(F)c(F)c(F)c2)cc1C1=C(O)C2(CCOCC2)NC1=O [1-36, 4-hydroxy-3-(3′,4′,5′-trifluoro-4-methylbiphenyl-3-yl)-8-oxa-1-azaspiro[4.5]dec-3-en-2-one] | 1500 nM |
| CO[C@H]1CC[C@]2(CC1)NC(=O)C(c1cc(-c3ccc(F)cc3)ccc1Cl)=C2O [1-44, (5s,8s)-3-(4-chloro-4′-fluorobiphenyl-3-yl)-4-hydroxy-8-methoxy-1-azaspiro[4.5]dec-3-en-2-one] | 1700 nM |
| CC1OC2(CCC3(CC2)NC(=O)C(c2cc(-c4ccc(Cl)cc4)ccc2Cl)=C3O)OC1C (stereo not shown) [1-71, 11-(4,4′-dichlorobiphenyl-3-yl)-12-hydroxy-2,3-dimethyl-1,4-dioxa-9-azadispiro[4.2.4.2]tetradec-11-en-10-one] | 912 nM |
| CCOC1CCC2(CC1)NC(=O)C(c1cc(-c3cccc(Cl)c3)ccc1C)=C2O (stereo not shown) [1-79, 3-(3′-chloro-4-methylbiphenyl-3-yl)-8-ethoxy-4-hydroxy-1-azaspiro[4.5]dec-3-en-2-one] | 2320 nM |
| COC1CCC2(CC1)NC(=O)C(c1cc(-c3cc(F)ccc3F)ccc1C)=C2O (stereo not shown) [1-80, 3-(2′,5′-difluoro-4-methylbiphenyl-3-yl)-4-hydroxy-8-methoxy-1-azaspiro[4.5]dec-3-en-2-one] | 2180 nM |
| Cc1ccc(-c2ccc(Cl)cc2)cc1C1=C(O)C2(CCCOC2)OC1=O (stereo not shown) [2-9, 3-(4′-chloro-4-methylbiphenyl-3-yl)-4-hydroxy-1,7-dioxaspiro[4.5]dec-3-en-2-one] | 2220 nM |
| COC1CCCC2(C1)OC(=O)C(c1cc(-c3ccc(Cl)cc3)ccc1Cl)=C2O (stereo not shown) [2-13, 3-(4,4′-dichlorobiphenyl-3-yl)-4-hydroxy-7-methoxy-1-oxaspiro[4.5]dec-3-en-2-one] | 1020 nM |
| Cc1ccc(-c2ccc(F)cc2)cc1C1=C(O)C2(CCCCC2)OC1=O [2-21, 3-(4′-fluoro-4-methylbiphenyl-3-yl)-4-hydroxy-1-oxaspiro[4.5]dec-3-en-2-one] | 874 nM |
| Cc1ccc(-c2ccc(Cl)cc2)cc1C1=C(O)C2(CCOCC2)OC1=O [2-37, 3-(4′-chloro-4-methylbiphenyl-3-yl)-4-hydroxy-1,8-dioxaspiro[4.5]dec-3-en-2-one] | 1050 nM |
| Cc1ccc(-c2ccc(Cl)cc2)cc1C1=C(O)C(C)(C2CCCCC2)OC1=O (stereo not shown) [2-40, 3-(4′-chloro-4-methylbiphenyl-3-yl)-5-cyclohexyl-4-hydroxy-5-methylfuran-2(5H)-one] | 1510 nM |
| Cc1ccc(-c2ccc(Cl)cc2)cc1C1=C(O)CC(C)CC1=O (stereo not shown) [7-1, 2-(4′-chloro-4-methylbiphenyl-3-yl)-3-hydroxy-5-methylcyclohex-2-en-1-one] | 932 nM |
| Cc1ccc(-c2ccc(F)cc2)c(C)c1C1C(=O)N2CCCCN2C1=O [8-1, 2-(4′-fluoro-2,4-dimethylbiphenyl-3-yl)tetrahydro-1H-pyrazolo[1,2-a]pyridazine-1,3(2H)-dione] | 3560 nM |

Same assay, conditions: Assay B1, ADP-Glo; read-out: ACC 1 (=B1) IC50

| IC50 | SMILES |
| --- | --- |
| 2710 nM | COC1CCC2(CC1)OC(=O)C(c1cc(-c3ccccc3Cl)ccc1C)=C2O (stereo not shown) [2-7, 3-(2′-chloro-4-methylbiphenyl-3-yl)-4-hydroxy-8-methoxy-1-oxaspiro[4.5]dec-3-en-2-one] |
| 1990 nM | Cc1ccc(-c2ccc(Cl)cc2)cc1C1=C(O)C2(CC2)OC1=O [2-8, 6-(4′-chloro-4-methylbiphenyl-3-yl)-7-hydroxy-4-oxaspiro[2.4]hept-6-en-5-one] |
| 2230 nM | Cc1ccc(-c2ccc(F)c(F)c2)cc1C1=C(O)C2(CCCC2)OC1=O [2-22, 3-(3′,4′-difluoro-4-methylbiphenyl-3-yl)-4-hydroxy-1-oxaspiro[4.4]non-3-en-2-one] |
| 2090 nM | Cc1ccc(-c2ccc(F)c(Cl)c2)cc1C1=C(O)C2(CCCC2)OC1=O [2-23, 3-(3′-chloro-4′-fluoro-4-methylbiphenyl-3-yl)-4-hydroxy-1-oxaspiro[4.4]non-3-en-2-one] |
| 2090 nM | O=C1OC2(CCCC2)C(O)=C1c1cc(-c2cc(F)c(F)c(F)c2)ccc1Cl [2-24, 3-(4-chloro-3′,4′,5′-trifluorobiphenyl-3-yl)-4-hydroxy-1-oxaspiro[4.4]non-3-en-2-one] |
| 1200 nM | O=C1OC2(CCCCC2)C(O)=C1c1cc(-c2ccc(F)c(F)c2)ccc1Cl [2-25, 3-(4-chloro-3′,4′-difluorobiphenyl-3-yl)-4-hydroxy-1-oxaspiro[4.5]dec-3-en-2-one] |
| 1190 nM | Cc1ccc(-c2ccc(Cl)cc2)cc1C1=C(O)C(C(C)(C)C)OC1=O (stereo not shown) [2-35, 5-tert-butyl-3-(4′-chloro-4-methylbiphenyl-3-yl)-4-hydroxyfuran-2(5H)-one] |

Same assay, conditions: Assay B1; read-out: ACC 1 (=B1) IC50

| SMILES | IC50 |
| --- | --- |
| Cc1ccc(-c2ccc(C)c(C3=C(O)C4(CCOCC4)NC3=O)c2)cc1 [1-15, 3-(4,4′-dimethylbiphenyl-3-yl)-4-hydroxy-8-oxa-1-azaspiro[4.5]dec-3-en-2-one] | 522 nM |
| Cc1ccc(-c2ccc(Cl)cc2)cc1C1=C(O)CN(CC(C)C)C1=O [1-27, 3-(4′-chloro-4-methylbiphenyl-3-yl)-4-hydroxy-1-(2-methylpropyl)-1,5-dihydro-2H-pyrrol-2-one] | 1940 nM |
| Cc1ccc(-c2ccc(F)c(F)c2)cc1C1=C(O)C2(CCOCC2)NC1=O [1-37, 3-(3′,4′-difluoro-4-methylbiphenyl-3-yl)-4-hydroxy-8-oxa-1-azaspiro[4.5]dec-3-en-2-one] | 850 nM |
| O=C1NC2(CCOCC2)C(O)=C1c1cc(-c2cc(F)c(F)c(F)c2)ccc1Cl [1-38, 3-(4-chloro-3′,4′,5′-trifluorobiphenyl-3-yl)-4-hydroxy-8-oxa-1-azaspiro[4.5]dec-3-en-2-one] | 747 nM |
| Cc1ccc(-c2ccc(Cl)c(C3=C(O)C4(CCOCC4)NC3=O)c2)cc1F [1-39, 3-(4-chloro-3′-fluoro-4′-methylbiphenyl-3-yl)-4-hydroxy-8-oxa-1-azaspiro[4.5]dec-3-en-2-one] | 1980 nM |
| O=C1NC2(CCOCC2)C(O)=C1c1cc(-c2ccc(F)cc2)ccc1Cl [1-41, 3-(4-chloro-4′-fluorobiphenyl-3-yl)-4-hydroxy-8-oxa-1-azaspiro[4.5]dec-3-en-2-one] | 1140 nM |

Continued, values first:

| IC50 | SMILES |
| --- | --- |
| 3190 nM | COCCC1(C)NC(=O)C(c2cc(-c3ccc(Cl)cc3)ccc2C)=C1O (stereo not shown) [1-47, 3-(4′-chloro-4-methylbiphenyl-3-yl)-4-hydroxy-5-(2-methoxyethyl)-5-methyl-1,5-dihydro-2H-pyrrol-2-one] |
| 1050 nM | Cc1ccc(-c2ccc(Cl)cc2)cc1C1C(=O)N2CCCCN2C1=O [8-3, 2-(4′-chloro-4-methylbiphenyl-3-yl)tetrahydro-1H-pyrazolo[1,2-a]pyridazine-1,3(2H)-dione] |
| 3920 nM | O=C1C(c2cc(-c3ccc(F)c(Cl)c3)ccc2Cl)C(=O)N2CCCCN12 [8-4, 2-(3′,4-dichloro-4′-fluorobiphenyl-3-yl)tetrahydro-1H-pyrazolo[1,2-a]pyridazine-1,3(2H)-dione] |
| 6940 nM | Cc1ccc(-c2ccc(F)cc2F)cc1C1C(=O)N2CCOCCN2C1=O [8-5, 8-(2′,4′-difluoro-4-methylbiphenyl-3-yl)tetrahydro-7H-pyrazolo[1,2-d][1,4,5]oxadiazepine-7,9(8H)-dione] |

Source: patent US20130040935A1, “CYCLIC KETO-ENOLS FOR THERAPY” (BAYER INTELLECTUAL PROPERTY GMBH, priority 2010, published 2013)
